From US12509424B2, “Compound and composition as PDGF receptor kinase inhibitor” (NIPPON SHINYAKU CO., LTD., priority 2019, dated 2025)
Read-outs that look alike come from different tables or passages of the source.

Legend:
[1] = system: pulmonary arterial smooth muscle cells; assay: Suppression of proliferation of pulmonary arterial smooth muscle cells (PDGF-BB stimulation, BrdU); assay type: cell-based; details: PASMC, read-out: Human normal PASMC proliferation suppression (PDGF stimulation_IC50)
Procedure, shortened: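 Test compound (final 3 to 10,000 nM) was added together with BrdU and PDGF-BB (final 10 ng/mL) to healthy human pulmonary artery smooth muscle cells held a day in 0.1% FBS. Proliferation was read after 1 day as anti-BrdU-detected BrdU incorporation.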

PDGFR-β = PDGFR-β (Homo sapiens (Human), UniProt P09619); assay: PDGFR-β tyrosine kinase inhibitory action (HTRF KinEASE-TK); assay type: biochemical; details: PDGFR-β enzyme 1 ng/μL, 30° C. for 30 minutes; read-out: PDGF-β IC50
Procedure, shortened: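 Recombinant PDGFR-β at 1 ng/μL final with TK substrate-3-biotin in a substrate solution containing 0.6 μM ATP; buffer 50 mM HEPES pH 7.0, 5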

[2] = target: TEL-PDGFRβ fusion gene transfected cells (Ba/F3); assay: Suppression of proliferation of TEL-PDGFRβ fusion gene transfected Ba/F3 cells; assay type: cell-based, human; details: TEL-PDGFRβ expressing Ba/F3 cells, 72 hours, final concentration 0.1 to 10,000 nM; read-out: PDGFR β/BaF3 proliferation inhibition (IC50)
Description: 2. Preparation of Test Substance
4. Analysis of Measurement Results

[3] = target: TEL-KIT fusion gene transfected cells (Ba/F3); assay: Suppression of proliferation of TEL-KIT fusion gene transfected Ba/F3 cells; details: read-out: KIT/BaF3 proliferation inhibition (IC50); TEL-KIT expressing Ba/F3 cells, 72 hours, final concentration 0.1 to 10,000 nM;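 also: viable cells quantified via formazan from tetrazolium reduction, inhibition scaled with 0.1% DMSO control as 0% and medium-only blank as 100%, IC50 from two-parameter logistic fit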
[4] = human PDGF-BB 10 ng/mL, BrdU uptake, final concentration 3 to 10,000 nM
[5] = 24 h, healthy human derived pulmonary arterial smooth muscle cells, human PDGF-BB 10 ng/mL stimulation, BrdU uptake after 1 day, test substance final concentration 3 to 10,000 nM

Chain of TEL-KIT fusion gene transfected cells (Ba/F3) (P10721 26-976 limits assumed, change not shown): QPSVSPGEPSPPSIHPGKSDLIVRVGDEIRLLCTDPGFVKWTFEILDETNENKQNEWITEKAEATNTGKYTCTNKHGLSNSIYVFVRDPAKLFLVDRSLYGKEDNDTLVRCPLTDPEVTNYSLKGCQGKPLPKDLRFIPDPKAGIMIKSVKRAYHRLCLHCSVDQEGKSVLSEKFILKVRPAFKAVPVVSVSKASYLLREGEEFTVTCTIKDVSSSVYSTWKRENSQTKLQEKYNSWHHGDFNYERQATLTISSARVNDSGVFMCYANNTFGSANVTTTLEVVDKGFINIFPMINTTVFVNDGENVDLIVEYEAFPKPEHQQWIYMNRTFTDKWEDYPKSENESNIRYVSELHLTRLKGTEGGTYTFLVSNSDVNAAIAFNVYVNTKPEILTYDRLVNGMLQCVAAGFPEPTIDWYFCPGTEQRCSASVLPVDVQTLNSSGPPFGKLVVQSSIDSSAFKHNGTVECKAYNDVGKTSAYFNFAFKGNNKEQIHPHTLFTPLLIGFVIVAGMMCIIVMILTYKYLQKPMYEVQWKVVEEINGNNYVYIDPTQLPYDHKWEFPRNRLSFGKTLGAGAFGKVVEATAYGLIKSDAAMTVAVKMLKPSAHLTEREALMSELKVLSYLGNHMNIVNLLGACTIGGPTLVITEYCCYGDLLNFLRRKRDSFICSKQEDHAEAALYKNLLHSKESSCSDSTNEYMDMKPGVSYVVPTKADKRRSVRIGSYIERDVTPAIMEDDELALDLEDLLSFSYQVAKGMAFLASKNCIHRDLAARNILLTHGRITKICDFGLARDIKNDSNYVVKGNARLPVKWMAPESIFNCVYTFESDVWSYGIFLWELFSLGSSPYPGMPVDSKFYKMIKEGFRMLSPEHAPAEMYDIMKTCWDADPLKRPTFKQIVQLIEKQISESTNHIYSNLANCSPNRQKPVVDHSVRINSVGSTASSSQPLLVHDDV
Chain of PDGFR-β (P09619 33-1106): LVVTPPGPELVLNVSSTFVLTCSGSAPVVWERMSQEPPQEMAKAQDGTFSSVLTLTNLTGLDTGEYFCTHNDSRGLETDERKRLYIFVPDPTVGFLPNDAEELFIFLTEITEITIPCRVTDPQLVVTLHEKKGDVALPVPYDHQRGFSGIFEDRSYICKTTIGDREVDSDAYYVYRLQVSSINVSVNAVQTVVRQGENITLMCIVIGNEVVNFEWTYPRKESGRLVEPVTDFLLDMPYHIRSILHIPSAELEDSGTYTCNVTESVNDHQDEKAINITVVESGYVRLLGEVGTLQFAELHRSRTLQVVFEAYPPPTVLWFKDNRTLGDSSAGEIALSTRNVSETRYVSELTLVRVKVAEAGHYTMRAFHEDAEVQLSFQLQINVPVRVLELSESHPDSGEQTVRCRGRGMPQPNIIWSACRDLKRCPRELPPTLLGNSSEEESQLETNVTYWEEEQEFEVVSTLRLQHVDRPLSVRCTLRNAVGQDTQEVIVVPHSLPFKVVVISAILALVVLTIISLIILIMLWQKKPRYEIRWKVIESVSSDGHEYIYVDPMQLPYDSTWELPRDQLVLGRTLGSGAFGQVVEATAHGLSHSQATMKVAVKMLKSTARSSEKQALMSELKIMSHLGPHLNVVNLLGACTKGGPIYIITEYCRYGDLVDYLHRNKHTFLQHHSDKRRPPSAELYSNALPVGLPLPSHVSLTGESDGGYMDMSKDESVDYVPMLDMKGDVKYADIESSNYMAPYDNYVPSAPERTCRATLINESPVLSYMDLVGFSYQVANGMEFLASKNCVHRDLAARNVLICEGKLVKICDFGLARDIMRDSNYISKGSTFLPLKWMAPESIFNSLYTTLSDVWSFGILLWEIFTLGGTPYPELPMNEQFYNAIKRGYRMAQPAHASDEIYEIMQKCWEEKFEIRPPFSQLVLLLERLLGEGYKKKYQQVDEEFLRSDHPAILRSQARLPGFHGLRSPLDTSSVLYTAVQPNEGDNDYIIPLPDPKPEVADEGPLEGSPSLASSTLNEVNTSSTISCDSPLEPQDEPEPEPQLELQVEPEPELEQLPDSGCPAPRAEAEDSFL
Chain of TEL-PDGFRβ fusion gene transfected cells (Ba/F3) (P09619 33-1106 limits assumed, change not shown): as the sequence (P09619 33-1106) above

| IC50 (PDGFR-β) [nM] | IC50 [2] [nM] | IC50 [3] [nM] | Structure (SMILES) | IC50 [1, 4] [nM] | IC50 [1, 5] [nM] |
| --- | --- | --- | --- | --- | --- |
| 11 | 3.9 | 330 | Cc1ccc(C(=O)N[C@H]2CCCC[C@@H]2O)cc1NC(=O)c1cncc(/C=C/C2CC2)c1 [Example 15, 5-[(E)-2-cyclopropylethenyl]-N-(5-{[(1S,2S)-2-hydroxycyclohexyl]carbamoyl}-2-methylphenyl)pyridine-3-carboxamide] | 18 |  |
| 22 | 130 | 1300 | Cc1ccc(C(=O)N[C@H]2CCCC[C@@H]2O)cc1NC(=O)c1cncc(NCC2CC2)c1 [Example 16, 5-[(cyclopropylmethyl)amino]-N-(5-{[(1S,2S)-2-hydroxycyclohexyl]carbamoyl}-2-methylphenyl)pyridine-3-carboxamide] | 81 |  |
| 38 | 79 | 600 | Cc1ccc(C(=O)N[C@H]2CCCC[C@@H]2O)cc1C(=O)Nc1cncc(-c2ccccc2)c1 [Example 77, N^1-[(1S,2S)-2-hydroxycyclohexyl]-4-methyl-N^3-(5-phenylpyridin-3-yl)benzene-1,3-dicarboxamide] |  |  |
| 260 | 12 | 2400 | Cc1ccc(C(=O)N[C@H]2CCCC[C@@H]2O)cc1OC(C)c1cncc(-c2ncccn2)c1 (stereo partly drawn) [Example 171, N-[(1S,2S)-2-hydroxycyclohexyl]-4-methyl-3-{1-[5-(pyrimidin-2-yl)pyridin-3-yl]ethoxy}benzamide] |  |  |
| 27 | 50 | 870 | Cc1ccc(C(=O)N[C@H]2CCCC[C@@H]2O)cc1CCc1cncc(-c2ccccc2)c1 [Example 174, N-[(1S,2S)-2-hydroxycyclohexyl]-4-methyl-3-[2-(5-phenylpyridin-3-yl)ethyl]benzamide] |  |  |
| 77 |  |  | O=C(N[C@H]1CCCC[C@@H]1O)c1ccc(F)c(/C=C(\F)c2cnc(NCC3CC3)nc2)c1 [Example 202, 3-[(Z)-2-{2-[(cyclopropylmethyl)amino]pyrimidin-5-yl}-2-fluoroethenyl]-4-fluoro-N-[(1S,2S)-2-hydroxycyclohexyl]benzamide] |  | 33 |
| 61 |  |  | O=C(N[C@H]1CCCC[C@@H]1O)c1ccc(F)c(/C=C(\F)c2cnc(NC3CC3)nc2)c1 [Example 203, 3-{(Z)-2-[2-(cyclopropylamino)pyrimidin-5-yl]-2-fluoroethenyl}-4-fluoro-N-[(1S,2S)-2-hydroxycyclohexyl]benzamide] |  | 200 |
| 21 |  |  | Cc1nc(N)ncc1/C(F)=C/c1cc(C(=O)N[C@H]2CCCC[C@@H]2O)ccc1F [Example 204, 3-[(Z)-2-(2-amino-4-methylpyrimidin-5-yl)-2-fluoroethenyl]-4-fluoro-N-[(1S,2S)-2-hydroxycyclohexyl]benzamide] |  | 52 |
| 130 |  |  | CNc1ncc(/C(F)=C/c2cc(C(=O)N[C@H]3CCCC[C@@H]3O)ccc2F)cn1 [Example 205, 4-fluoro-3-{(Z)-2-fluoro-2-[2-(methylamino)pyrimidin-5-yl]ethenyl}-N-[(1S,2S)-2-hydroxycyclohexyl]benzamide] |  | 160 |
| 31 |  |  | Cc1ccc(C(=O)N[C@H]2CCCC[C@@H]2O)cc1/C=C(\F)c1cnc(N)cn1 [Example 206, 3-[(Z)-2-(5-aminopyrazin-2-yl)-2-fluoroethenyl]-N-[(1S,2S)-2-hydroxycyclohexyl]-4-methylbenzamide] | 92 |  |
| 100 |  |  | O=C(N[C@H]1CCCC[C@@H]1O)c1ccc(F)c(/C=C(\F)c2cncc(F)c2)c1 [Example 207, 4-fluoro-3-[(Z)-2-fluoro-2-(5-fluoropyridin-3-yl)ethenyl]-N-[(1S,2S)-2-hydroxycyclohexyl]benzamide] | 99 |  |

The next lines start with the molecule.

| Structure (SMILES) | IC50 (PDGFR-β) [nM] | IC50 [2] [nM] | IC50 [3] [nM] | IC50 [1, 4] [nM] | IC50 [1, 5] [nM] |
| --- | --- | --- | --- | --- | --- |
| Cc1ccc(C(=O)N[C@H]2CCCC[C@@H]2O)cc1NC(=O)c1cnc(NC2CC2)s1 [Example 1, 2-(cyclopropylamino)-N-(5-{[(1S,2S)-2-hydroxycyclohexyl]carbamoyl}-2-methylphenyl)-1,3-thiazole-5-carboxamide] | 5.9 | 17 | 480 | 110 |  |
| Cc1ccc(C(=O)N[C@H]2CCCC[C@@H]2O)cc1NC(=O)c1cncc(-c2ccccc2)c1 [Example 2, N-(5-{[(1S,2S)-2-hydroxycyclohexyl]carbamoyl}-2-methylphenyl)-5-phenylpyridine-3-carboxamide] | 22 | 3.6 | 200 | 23 |  |
| Cc1ccc(C(=O)N[C@H]2CCCC[C@@H]2O)cc1NC(=O)c1cnc(CC2CC2)s1 [Example 3, 2-(cyclopropylmethyl)-N-(5-{[(1S,2S)-2-hydroxycyclohexyl]carbamoyl}-2-methylphenyl)-1,3-thiazole-5-carboxamide] | 82 | 1.4 | 620 | 30 |  |
| Cc1ccc(C(=O)N[C@H]2CCCC[C@@H]2O)cc1NC(=O)c1cncc(NC2CC2)c1 [Example 4, 5-(cyclopropylamino)-N-(5-{[(1S,2S)-2-hydroxycyclohexyl]carbamoyl}-2-methylphenyl)pyridine-3-carboxamide] | 4.9 | 26 | 1500 | 220 |  |
| Cc1ccc(C(=O)N[C@H]2CCCC[C@@H]2O)cc1NC(=O)c1cnc(-c2ccccc2)o1 [Example 5, N-(5-{[(1S,2S)-2-hydroxycyclohexyl]carbamoyl}-2-methylphenyl)-2-phenyl-1,3-oxazole-5-carboxamide] | 6.1 | 5.8 | 170 | 48 |  |
| Cc1ccc(C(=O)N[C@H](CO)c2ccccc2)cc1NC(=O)c1cncc(-c2ccccc2)c1 [Example 6, N-(5-{[(1S)-2-hydroxy-1-phenylethyl]carbamoyl}-2-methylphenyl)-5-phenylpyridine-3-carboxamide] | 12 | 14 | 170 | 23 |  |
| Cc1ccc(C(=O)N[C@H]2CCCC[C@@H]2O)cc1NC(=O)c1cncc(OC(C)C)c1 [Example 7, N-(5-{[(1S,2S)-2-hydroxycyclohexyl]carbamoyl}-2-methylphenyl)-5-[(propan-2-yl)oxy]pyridine-3-carboxamide] | 170 | 43 | 1900 | 150 |  |
| Cc1ccc(C(=O)N[C@H]2CCCC[C@@H]2O)cc1NC(=O)c1cnc(NCC2CC2)s1 [Example 8, 2-[(cyclopropylmethyl)amino]-N-(5-{[(1S,2S)-2-hydroxycyclohexyl]carbamoyl}-2-methylphenyl)-1,3-thiazole-5-carboxamide] | 6 | 9.7 | 650 | 110 |  |
| Cc1ccc(C(=O)N[C@H]2CCCC[C@@H]2O)cc1NC(=O)c1cncc(-c2ccc(Cl)cc2)c1 [Example 9, 5-(4-chlorophenyl)-N-(5-{[(1S,2S)-2-hydroxycyclohexyl]carbamoyl}-2-methylphenyl)pyridine-3-carboxamide] | 26 | 22 | 530 | 46 |  |
| CCCc1ncc(C(=O)Nc2cc(C(=O)N[C@H]3CCCC[C@@H]3O)ccc2C)s1 [Example 10, N-(5-{[(1S,2S)-2-hydroxycyclohexyl]carbamoyl}-2-methylphenyl)-2-propyl-1,3-thiazole-5-carboxamide] | 220 | 25 | 660 | 140 |  |
| Cc1ccc(C(=O)N[C@H]2CCCC[C@@H]2O)cc1NC(=O)c1cncc(-c2cccc(Cl)c2)c1 [Example 11, 5-(3-chlorophenyl)-N-(5-{[(1S,2S)-2-hydroxycyclohexyl]carbamoyl}-2-methylphenyl)pyridine-3-carboxamide] | 17 | 13 | 310 | 49 |  |
| Cc1ccc(C(=O)N[C@H]2CCCC[C@@H]2O)cc1NC(=O)c1cncc(-c2ccccc2C)c1 [Example 12, N-(5-{[(1S,2S)-2-hydroxycyclohexyl]carbamoyl}-2-methylphenyl)-5-(2-methylphenyl)pyridine-3-carboxamide] | 170 | 35 | 800 | 65 |  |
| Cc1ccc(C(=O)N[C@H]2CCCC[C@@H]2O)cc1NC(=O)c1cncc(-c2ccccc2Cl)c1 [Example 13, 5-(2-chlorophenyl)-N-(5-{[(1S,2S)-2-hydroxycyclohexyl]carbamoyl}-2-methylphenyl)pyridine-3-carboxamide] | 140 | 17 | 790 | 100 |  |
| CCC[C@@H](CO)NC(=O)c1ccc(C)c(NC(=O)c2cncc(-c3ccccc3)c2)c1 [Example 14, N-(5-{[(2S)-1-hydroxypentan-2-yl]carbamoyl}-2-methylphenyl)-5-phenylpyridine-3-carboxamide] | 40 | 11 | 330 | 48 |  |
